Converted amounts (≈) assume the structure as drawn.

Results on eleven compounds are retold here after US11292776B2, “Small molecule inhibitors of fungal hyphae and biofilm formation” (University of Sharjah, priority 2019, dated 2022).

The subject of one data set is C. albicans yeast. Kind of data set: Antimicrobial activity / MIC against C. albicans growing in yeast-forming conditions. It is filed as cell-based, C. albicans SC5314. Particulars: for MIC: 24 h; for MIC / MIC C. albicans Yeast: MIC100, lowest concentration inhibiting 100% of growth, 24 hrs incubation; for IC50: Candida albicans, −log IC50 against C. albicans, training set of 3D QSAR, read-out: pIC50 Experimental (converted). Here is the method: (§1) Collections of bacterial and fungal strains were obtained from the laboratory of Dr. Ibrahim at Harbor-UCLA medical center, Torrance, Calif. The bacterial strains used in this study were the Gram-negative bacterium Escherichia coli and the Gram-Positive bacterium methicillin-resistant Staphylococcus aureus (MRSA) LAC300. All bacterial strains were cultured on sterile Luria-Bertani medium (LB). The fungal strain used in this study was C. albicans SC5314. C. albicans was inoculated into sterile yeast potato dextrose broth (YPD) and incubated for 24 h at 37° C. (This was used as an initial culture for all studies described), and incubated in two different media, Yeast Nitrogen Base (YNB) broth or Roswell Park Memorial Institute medium (RPMI-1640). Polymyxin B (colistin), vancomycin and Ketoconazole were purchased from (Sigma-Aldrich).
(§2) The antimicrobial activity of compounds SR1-8 on agar plates, liquid broth media and MIC were measured according to modified Clinical and Laboratory Standards Institute (CLSI). Briefly, 0.1 mL containing 10^5 CFU/mL was spread on Luria-Bertani (LB) agar plates. The plates were then incubated at 37° C. for […] with filter discs (8 mm diameter) saturated with different dilutions of the compounds (1-400 μg/mL). The inhibition zones (mm) were measured by determining the diameter of the clear area. Similarly, the activity in liquid media was measured by incubating the aforementioned concentrations of the compounds into LB broth media inoculated with 10^5 CFU/mL in 96-well microplates at 37° C. for 24 h. The turbidity representing the microbial growth was measured by microplate reader (DYNEX technologies) at OD600. […] Each test was performed in triplicate. Ketoconazole, colistin and vancomycin were employed as positive controls against C. albicans, E. coli and S. aureus bacteria, respectively. Cultures without the compounds or antimicrobials were employed as negative control.

Data set [1] has as its system C. albicans hyphae / biofilm. Kind of data set: Inhibition of Candida biofilm (hyphae) formation, microtiter plate MTT assay. Type of data set: cell-based, C. albicans SC5314. Particulars: for MIC: MIC100 for biofilm (hyphal) formation, 24 hrs incubation, RPMI-1640, 37° C.; for inhibition at 10 µg/mL: 10 μg/mL, hyphae growth conditions. Here is the method:
as §1
The MICs for cells forming biofilm were determined by a microtiter plate assay. Briefly, a 96-well polystyrene microtiter plate was seeded with 200 μL of RPMI-1640 containing 10^6 C. albicans cells in the presence of the compound of interest at concentration range of 1-100 μg/mL. After 24 h of incubation at 37° C., the biofilms were washed and the fungal viability was analyzed using 3-(4,5-dimethylthiazol-2-yl)-2,5-diphenyl tetrazolium bromide (MTT) (Sigma) and the final absorbance was measured at 540 nm. The assay was performed in triplicate and repeated three times. The MIC of the compounds causing 100% inhibition of C. albicans biofilm formation was determined by measuring the metabolic activity of biofilm compared to solvent control.

A further data set relates to E. coli. Kind of data set: Antimicrobial activity / MIC against E. coli. As to conditions: MIC100, 24 hrs incubation; for MIC: Escherichia coli, read-out: MIC Bacteria E. Coli. It is filed as cell-based, Escherichia coli. Here is the method:
as §1, §2

The next data set concerns S. aureus. Description: Antimicrobial activity / MIC against S. aureus. It is filed as cell-based, methicillin-resistant Staphylococcus aureus (MRSA) LAC300. As to conditions: Staphylococcus aureus; MIC100; 24 hrs incubation; read-out: MIC Bacteria S. aureus. Here is the method:
as §1, with “Polymyxin B (colistin), vancomycin and Ketoconazole were purchased from (Sigma-Aldrich).” left out
The antimicrobial activity of compounds SR1-8 on agar plates, liquid broth media and MIC were measured according to modified Clinical and Laboratory Standards Institute (CLSI). […] The inhibition zones (mm) were measured by determining the diameter of the clear area. Similarly, the activity in liquid media was measured by incubating the aforementioned concentrations of the compounds into LB broth media inoculated with 10^5 CFU/mL in 96-well microplates at 37° C. for 24 h. The turbidity representing the microbial growth was measured by microplate reader (DYNEX technologies) at OD600. […]

Protocol for human erythrocytes: DPBS-washed erythrocytes (3×10^6 cells per well) were incubated in 96-well plate with 200 μg/mL of SR compounds at 37° C. for 30 min. The hemoglobin released from lysed erythrocytes was measured using micro-plate reader at 405 nm. The absorbance value for each sample was subtracted from the absorbance value of cells treated only with washing buffer and the hemolytic activity (%) was calculated. The data display the mean±standard error (SEM) of three independent measurements.
The cytotoxic assay of SR compounds was measured by quantifying the amount of hemoglobin released by lysis of human erythrocytes as previously described. Briefly, fresh whole blood from healthy individual was collected by venipuncture and the blood was immediately centrifuged at 500 g for 10 min using benchtop centrifuge (Eppendorf 5804R Refrigerated Benchtop). […] The plate was incubated at 37° C. for 30 min, and the intact cells were precipitated by centrifugation at 500 g for 10 min at 4° C. and the supernatants (125 μL) were transferred to a flat-bottom 96-well plate to measure hemoglobin release by absorbance at 405 nm using a microplate reader. The absorbance values for each sample were subtracted from the absorbance value obtained for washing buffer-treated cells and the hemolytic activity (%) was calculated. […]

`O=C1NC(=S)SC1=Cc1ccc(OCc2ccc(C(F)(F)F)cc2)c(Br)c1` [SR5, 5-[3-Bromo-4-(4-trifluoromethyl-benzyloxy)-benzylidene]-2-thioxo-thiazolidin-4-one] returned a melting point of 210 to 212 °C. Also, in the data set on C. albicans yeast, the MIC is 200 µg/mL (≈ 422 µM), the IC50 is 470 µM and the “MIC C. albicans Yeast” value turned out to be 200 ± 15 µg/mL (≈ 422 µM). Moreover, the MIC in data set [1] worked out at 20 ± 3 µg/mL (≈ 42.2 µM). In the data set with E. coli, the MIC is 400 ± 20 µg/mL (≈ 843 µM).
With `Cc1ccc(COc2ccc(C=C3SC(=S)NC3=O)cc2Cl)cc1` [SR3, 5-[3-Chloro-4-(4-methyl-benzyloxy)-benzylidene]-2-thioxo-thiazolidin-4-one], the melting point lay in the range of 225 to 227 °C. For the same compound, in the data set on C. albicans yeast, the MIC is 400 µg/mL (≈ 1060 µM), the IC50 was 1060 µM and the “MIC C. albicans Yeast” value was above 400 ± 10 µg/mL. This compound also had an MIC in data set [1] of 20 ± 5 µg/mL (≈ 53.2 µM). Also, in the data set with E. coli, the MIC amounted to 400 ± 10 µg/mL (≈ 1060 µM).
In the case of `COc1cc(C=C2SC(=S)NC2=O)ccc1OCc1ccc(C)cc1` [SR1, 5-[3-Methoxy-4-(4-methyl-benzyloxy)-benzylidene]-2-thioxo-thiazolidin-4-one], the melting point was in the range of 205 to 207 °C. In addition, in the data set on C. albicans yeast, the MIC stood at 400 µg/mL (≈ 1080 µM), the IC50 is 1080 µM and the “MIC C. albicans Yeast” value is above 400 ± 15 µg/mL. Moreover, the MIC in data set [1] is 20 ± 5 µg/mL (≈ 53.8 µM). Besides, the MIC in the data set with E. coli worked out at 100 ± 10 µg/mL (≈ 269 µM). Further, the MIC in the data set with S. aureus was above 400 µg/mL.
For the compound Colistin [reference compound], the “MIC Bacteria E. Coli” value in the data set with E. coli came out at 5 µg/mL.
As to `Cc1ccc(COc2ccc(C=C3SC(=S)NC3=O)cc2Br)cc1` [SR2, 5-[3-Bromo-4-(4-methyl-benzyloxy)-benzylidene]-2-thioxo-thiazolidin-4-one], the melting point lay in the range of 217 to 219 °C. In addition, in the data set on C. albicans yeast, the MIC was 200 µg/mL (≈ 476 µM), the IC50 is 475 µM and the “MIC C. albicans Yeast” value was 200 ± 15 µg/mL (≈ 476 µM). The same compound came in with an MIC in data set [1] of 10 ± 2 µg/mL (≈ 23.8 µM). In the data set with E. coli, the MIC was 100 ± 10 µg/mL (≈ 238 µM).
In the case of `COc1cc(C=C2SC(=S)NC2=O)ccc1OCc1cccc(C(F)(F)F)c1` [SR7, 5-[3-Methoxy-4-(3-trifluoromethyl-benzyloxy)-benzylidene]-2-thioxo-thiazolidin-4-one], the melting point was 199 to 201 °C. In the data set on C. albicans yeast, the MIC is 125 µg/mL (≈ 294 µM), the IC50 is 264 µM and the “MIC C. albicans Yeast” value worked out at 125 ± 10 µg/mL (≈ 294 µM). In data set [1], this compound returned an inhibition at 10 µg/mL of 90% and an MIC of 10 ± 3 µg/mL (≈ 23.5 µM). The MIC with E. coli was 100 ± 5 µg/mL (≈ 235 µM).
The compound `COc1cc(C=C2SC(=S)NC2=O)ccc1OCc1ccc(C(F)(F)F)cc1` [SR4, 5-[3-Methoxy-4-(4-trifluoromethyl-benzyloxy)-benzylidene]-2-thioxo-thiazolidin-4-one] yielded a melting point of 209 to 211 °C. In the data set on C. albicans yeast, the MIC was 200 µg/mL (≈ 470 µM), the IC50 is 456 µM and the “MIC C. albicans Yeast” value was 200 ± 10 µg/mL (≈ 470 µM). In addition, in data set [1], at 10 µg/mL the inhibition was 50% and the MIC was 20 ± 5 µg/mL (≈ 47 µM). In addition, in the data set with E. coli, the MIC stood at 100 ± 10 µg/mL (≈ 235 µM).
In the data set on C. albicans yeast, `CC(=O)N1CCN(c2ccc(OCC3COC(Cn4ccnc4)(c4ccc(Cl)cc4Cl)O3)cc2)CC1` (centres unmarked) [Ketoconazole, reference compound] gave an MIC of 3 µg/mL (≈ 5.65 µM).
Consider `O=C1NC(=S)SC1=Cc1ccc(OCc2cccc(C(F)(F)F)c2)c(Br)c1` [SR6, 5-[3-Bromo-4-(3-trifluoromethyl-benzyloxy)-benzylidene]-2-thioxo-thiazolidin-4-one], for which the melting point lay within 235 to 237 °C. Besides, in the data set with C. albicans yeast, the MIC amounted to 125 µg/mL (≈ 264 µM), the IC50 is 264 µM and the “MIC C. albicans Yeast” value was 125 ± 10 µg/mL (≈ 264 µM). Moreover, in data set [1], the inhibition at 10 µg/mL came to 50% and the MIC was determined as 10 ± 5 µg/mL (≈ 21.1 µM). Moreover, in the data set with E. coli, the MIC was determined as 400 ± 10 µg/mL (≈ 843 µM).
On to Triton X-100, for which the “erythrocyte hemolysis (positive control)” value in the data set with human erythrocytes was 100%.
Compound `O=C1NC(=S)SC1=Cc1ccc(OCc2cccc(C(F)(F)F)c2)c(Cl)c1` [SR8, 5-[3-Chloro-4-(3-trifluoromethyl-benzyloxy)-benzylidene]-2-thioxo-thiazolidin-4-one] came in with a melting point of 224 to 226 °C. For the same compound, in the data set on C. albicans yeast, the MIC came to 125 µg/mL (≈ 291 µM), the IC50 is 294 µM and the “MIC C. albicans Yeast” value turned out to be 125 ± 10 µg/mL (≈ 291 µM). Further, in data set [1], 10 µg/mL produced 50% inhibition and the MIC is 20 ± 5 µg/mL (≈ 46.5 µM). Also, the MIC in the data set with E. coli worked out at 100 ± 10 µg/mL (≈ 233 µM).
